Read-outs that look alike come from different tables or passages of the source.
Tests used:
[1] = biological target: T1, human Orexin 1 receptor (Homo sapiens, UniProt O43613); assay: Assay A: in vitro testing of OX1R potency, OX1R IP1; format: cell-based; conditions: Table 3, read-out: Assay A OX1R Kb [nM] (Orexin A concentration)
T1 construct: stably expressing the full-length human Orexin 1 receptor; expressed in transfected cells; host or cells: CHO-K1 (CHO-K1/hOx1)
T1 sequence (O43613 1-425): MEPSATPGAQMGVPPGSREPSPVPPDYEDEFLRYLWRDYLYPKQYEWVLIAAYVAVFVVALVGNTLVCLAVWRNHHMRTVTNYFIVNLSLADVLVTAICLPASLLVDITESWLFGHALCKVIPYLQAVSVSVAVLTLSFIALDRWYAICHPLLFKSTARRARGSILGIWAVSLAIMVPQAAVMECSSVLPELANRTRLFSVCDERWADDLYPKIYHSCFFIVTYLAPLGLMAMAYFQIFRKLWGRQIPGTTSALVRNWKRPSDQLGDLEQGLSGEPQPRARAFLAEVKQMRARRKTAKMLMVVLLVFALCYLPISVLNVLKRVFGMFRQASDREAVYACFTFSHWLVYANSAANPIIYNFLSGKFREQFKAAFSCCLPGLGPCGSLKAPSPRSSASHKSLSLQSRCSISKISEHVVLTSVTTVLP
Text: Chem. Genomics 2009, 3, 22-32. […] AssayExplorer (Accelrys). […] Sci. 1993, 14(4), 110-112).

[2] = Assay C: metabolic stability in human liver microsomes (human MST); format: in vitro ADME; conditions: for half-life at 1 μM: pH 7.6, pooled human liver microsomes, 1 μM test compound, 37° C., read-out: Assay C: Human MST t1/2; for stability in human liver microsomes compared with closest prior art compounds in WO2016/034882 (in words): versus closest prior art examples of WO2016/034882
Experimental: C. Assessment of Metabolic Stability in Human Liver Microsomes (Human MST) The metabolic stability of the compounds according to the invention may be investigated as follows: The metabolic degradation of the test compound is assayed at 37° C. with pooled human liver microsomes. The final incubation volume of 100 μL per time point contains TRIS buffer pH 7.6 at room temperature (0.1 M), MgCl2 (5 mM), microsomal protein (1 mg/mL) and the test compound at a final concentration of 1 μM. Following a short pre-incubation period at 37° C., the reactions are initiated by addition of beta-nicotinamide adenine dinucleotide phosphate, reduced form (NADPH, 1 mM), and terminated by transferring an aliquot into solvent after different time points. After centrifugation (10000 g, 5 min), an aliquot of the supernatant is assayed by LC-MS/MS for the amount of parent compound. The half-life (t1/2) is determined by the slope of the semi-logarithmic plot of the concentration-time profile.

[3] = biological target: T2, OX2R (Homo sapiens, UniProt O43614); conditions: Table 3 of WO2016/034882, cited from earlier work
T2 sequence (O43614 1-444): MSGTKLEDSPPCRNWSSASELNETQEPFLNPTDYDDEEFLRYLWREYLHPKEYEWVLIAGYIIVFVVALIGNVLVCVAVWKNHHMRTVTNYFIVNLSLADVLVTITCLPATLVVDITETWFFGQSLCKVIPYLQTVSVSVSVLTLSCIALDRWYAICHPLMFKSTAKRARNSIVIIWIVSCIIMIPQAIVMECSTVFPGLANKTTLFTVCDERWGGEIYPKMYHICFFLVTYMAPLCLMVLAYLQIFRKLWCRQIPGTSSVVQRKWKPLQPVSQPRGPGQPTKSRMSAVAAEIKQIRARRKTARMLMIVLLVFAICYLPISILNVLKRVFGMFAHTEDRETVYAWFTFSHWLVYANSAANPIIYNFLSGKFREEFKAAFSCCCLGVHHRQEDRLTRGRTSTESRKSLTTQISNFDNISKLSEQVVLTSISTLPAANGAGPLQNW

[4] = biological target: T2, OX2R; assay: OX2R in vitro potency as reported in WO2016/034882; format: cell-based; conditions: Table 1 of WO2016/034882

CCN(C(=O)c1ccccc1-c1ncccn1)[C@@H](C)COc1cnc(C(F)(F)F)cn1 [Example 30]
Kb ([1]; 0.5 nM Orexin A): 0.55 nM | Kb ([1]; 50 nM Orexin A): 0.63 nM | half-life at 1 μM [2]: > 2.17 h | stability in human liver microsomes compared with closest prior art compounds in WO2016/034882 (in words) [2]: markedly improved stability

CC[C@@H](CNc1cnc(C(F)(F)F)cn1)N(CC)C(=O)c1nc(C)ccc1-n1nccn1 [Ex 70 in WO2016/ 034882]
Kb ([1]; 50 nM Orexin A): 0.14 nM | OX2R pIC50 [3]: 5.3 | IC50 ([3]; read-out: OX2R IC50 (corresponds to pIC50) (converted)): > 5000 nM | half-life at 1 μM [2]: 0.333 h

CCN(C(=O)c1ccccc1-c1noc(C)n1)[C@@H](C)COc1cnc(C(F)(F)F)cn1 [Example 32]
Kb ([1]; 0.5 nM Orexin A): 2.1 nM | half-life at 1 μM [2]: 1.1 h

CCN(C(=O)c1ccc(C)cc1-c1nnc(C)o1)[C@@H](C)COc1cnc(C(F)(F)F)cn1 [Example 14]
Kb ([1]; 0.5 nM Orexin A): 4.6 nM | half-life at 1 μM [2]: 1.48 h

CCN(C(=O)c1cc(F)ccc1-n1nccn1)[C@@H](C)COc1cnc(C(F)(F)F)cn1 [Example 3]
Kb ([1]; 0.5 nM Orexin A): 2.1 nM | half-life at 1 μM [2]: > 2.17 h

CCN(C(=O)c1ccc(OC)cc1-n1nccn1)[C@@H](C)COc1cnc(C(F)(F)F)cn1 [Example 18]
Kb ([1]; 0.5 nM Orexin A): 1.7 nM | Kb ([1]; 50 nM Orexin A): 1.8 nM | half-life at 1 μM [2]: 1.18 h

CCN(C(=O)c1ccc(F)c(F)c1-n1nccn1)[C@@H](C)COc1cnc(C(F)(F)F)cn1 [Example 33]
Kb ([1]; 0.5 nM Orexin A): 2.5 nM | half-life at 1 μM [2]: > 2.17 h

CCN(C(=O)c1ccc(F)cc1-c1ncccn1)[C@@H](C)COc1cnc(C(F)(F)F)cn1 [Example 27]
Kb ([1]; 0.5 nM Orexin A): 1 nM | half-life at 1 μM [2]: > 2.17 h | stability in human liver microsomes compared with closest prior art compounds in WO2016/034882 (in words) [2]: markedly improved stability

CCN(C(=O)c1cc(F)c(F)cc1-n1nccn1)[C@@H](C)COc1cnc(C(F)(F)F)cn1 [Example 4]
Kb ([1]; 0.5 nM Orexin A): 5.5 nM | half-life at 1 μM [2]: > 2.17 h

CCN(C(=O)c1ccc(F)cc1-n1nccn1)[C@@H](C)COc1cnc(C(F)(F)F)cn1 [Example 2]
Kb ([1]; 0.5 nM Orexin A): 4.5 nM | half-life at 1 μM [2]: > 2.17 h

CCN(C(=O)c1cc(OC)ccc1-n1nccn1)[C@@H](C)COc1cnc(C(F)(F)F)cn1 [Example 8]
Kb ([1]; 50 nM Orexin A): 0.8 nM | half-life at 1 μM [2]: 1.22 h

CCN(C(=O)c1cccc(F)c1-c1nnc(C)o1)[C@@H](C)COc1cnc(C(F)(F)F)cn1 [Example 12]
Kb ([1]; 0.5 nM Orexin A): 12 nM | half-life at 1 μM [2]: > 2.17 h

CCN(C(=O)c1cccc(F)c1-c1ncccn1)[C@@H](C)COc1cnc(C(F)(F)F)cn1 [Example 29]
Kb ([1]; 0.5 nM Orexin A): 0.64 nM | Kb ([1]; 50 nM Orexin A): 0.51 nM | half-life at 1 μM [2]: > 2.17 h | stability in human liver microsomes compared with closest prior art compounds in WO2016/034882 (in words) [2]: markedly improved stability

CC[C@@H](CNc1cnc(C(F)(F)F)cn1)N(C)C(=O)c1cc(Cl)ccc1-n1nccn1 [Ex 40 in WO2016/ 034882, reference compound]
Kb ([1]; 0.5 nM Orexin A): 0.73 nM | OX2R IC50/OX1R IC50 [4]: Table 1: 156

CCN(C(=O)c1ccccc1-n1cccn1)[C@@H](C)COc1cnc(C(F)(F)F)cn1 [Example 9]
Kb ([1]; 0.5 nM Orexin A): 5.4 nM | half-life at 1 μM [2]: 0.417 h

CCN(C(=O)c1cccc(C)c1-c1nnc(C)o1)[C@@H](C)COc1cnc(C(F)(F)F)cn1 [Example 15]
Kb ([1]; 0.5 nM Orexin A): 1.3 nM | Kb ([1]; 50 nM Orexin A): 2.3 nM | half-life at 1 μM [2]: 1.52 h

CCN(C(=O)c1ccc(C)cc1-n1nccn1)[C@@H](C)COc1cnc(C(F)(F)F)cn1 [Example 10]
Kb ([1]; 50 nM Orexin A): 0.44 nM | half-life at 1 μM [2]: 1.33 h | stability in human liver microsomes compared with closest prior art compounds in WO2016/034882 (in words) [2]: markedly improved stability

CCN(C(=O)c1ccc(C(F)(F)F)cc1-n1nccn1)[C@@H](C)COc1cnc(C(F)(F)F)cn1 [Example 25]
Kb ([1]; 0.5 nM Orexin A): 12 nM | half-life at 1 μM [2]: 0.383 h

CCN(C(=O)c1cc(F)cc(F)c1-n1nccn1)[C@@H](C)COc1cnc(C(F)(F)F)cn1 [Example 6]
Kb ([1]; 0.5 nM Orexin A): 3 nM | half-life at 1 μM [2]: > 2.17 h

CCN(C(=O)c1ccccc1-c1nc(C)no1)[C@@H](C)COc1cnc(C(F)(F)F)cn1 [Example 28]
Kb ([1]; 0.5 nM Orexin A): 3.9 nM | half-life at 1 μM [2]: 0.65 h

CCN(C(=O)c1cccc(F)c1-n1nccn1)[C@@H](C)COc1cnc(C(F)(F)F)cn1 [Example 22]
Kb ([1]; 0.5 nM Orexin A): 2.1 nM | Kb ([1]; 50 nM Orexin A): 2.1 nM | half-life at 1 μM [2]: > 2.17 h

CCN(C(=O)c1ccccc1-n1nccn1)[C@@H](C)COc1cnc(C(F)(F)F)cn1 [Example 1]
Kb ([1]; 0.5 nM Orexin A): 0.97 nM | half-life at 1 μM [2]: > 2.17 h

CCN(C(=O)c1cc(C(F)(F)F)ccc1-n1nccn1)[C@@H](C)COc1cnc(C(F)(F)F)cn1 [Example 7]
Kb ([1]; 0.5 nM Orexin A): 13 nM | half-life at 1 μM [2]: > 2.17 h

CCN(C(=O)c1ccc(Cl)cc1-n1nccn1)[C@@H](C)COc1cnc(C(F)(F)F)cn1 [Example 24]
Kb ([1]; 0.5 nM Orexin A): 1.1 nM | Kb ([1]; 50 nM Orexin A): 1 nM | half-life at 1 μM [2]: 1.52 h
